Data published in PubChem BioAssay AID179 (DTP/NCI, 2004).
Calls of active or inactive are those of the source.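 Rule for the calls: active = compounds giving half or more protection of infected cells from virus-caused growth loss, again on retest; inactive = the rest.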

Test system: CEM cells HIV-1 protection, formazan growth assay
Experiment: NCI AIDS Antiviral Assay
Conditions: for IC50: measured here: growth of uninfected CEM cells
How it was run: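 Steps: treat uninfected and HIV-1-infected human CEM cells at five drug levels; quantify growth by soluble formazan; retest any compound reaching 50% protection; classify actives from the retest.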

Row | Compound | EC50 [µM] | IC50 [µM] | outcome
1 | CC(=O)OC1CC2OC2(C)C2[C@H](O)C34O[C@@]3(C)C(=O)O[C@H]4/C=C(/C)C[C@H](OC(C)=O)[C@H](OC(C)=O)[C@@]12C (stereo partly drawn) | > 123 | 75.9 | –
2 | Cc1ccccc1C(C#N)/C(=N/NC(=O)c1cc2ccccc2cc1O)C(=O)Nc1cccc(Cl)c1 (stereo not drawn) | > 191 | 4.9 | –
3 | Cc1c(C)c2ccc3occc(=O)c3c2oc1=O | > 195 | 95.5 | –
4 | N#C/C(=C\n1c(=S)[nH]c2ccc([N+](=O)[O-])cc21)c1nc2ccccc2s1 | > 200 | 102 | –
5 | COC(=O)NC(=O)c1cn(C2OC(CO)C(O)C2O)c(=O)[nH]c1=O (stereo not drawn) | > 724 | > 724 | –
6 | N#CC(/C(=N\NC(=O)c1ccncc1)C(=O)Nc1ccc([N+](=O)[O-])cc1[N+](=O)[O-])c1nc(-c2ccc(Br)cc2)cs1 (stereo not drawn) | > 389 | > 389 | –
7 | C=CCNc1ncnc2sc(SC)nc12 | > 200 | 107 | –
8 | C[C@H]1CC[C@@H]2[C@@H](C)C[C@H]3[C@@H]4C(C)(C)OC(=O)[C@]4(C)C(=O)[C@@]23C1=O | > 200 | 77.6 | –
9 | c1ccc(C2SCc3nc4cc5ccccc5cc4n32)cc1 (stereo not drawn) | > 200 | > 200 | –
10 | C=C1C2CCC3(CCC4C5(C)CCCC4(C=NC5)C3C2)C1O (stereo not drawn) | – | – | inactive
11 | CC(=O)OC(=C(C#N)C#N)c1nccnc1C(=O)O | > 200 | > 200 | –
12 | O=C1CCC(=O)Nc2ccccc2-c2ccccc2N1 | – | – | inactive
13 | O=C(Nc1ccccc1)N1N=C(c2ccccc2)C1c1ccccc1 (stereo not drawn) | > 200 | 24.5 | –
14 | C/C(=C/C(=O)O)CC/C=C(/C)C(=O)O | > 479 | > 479 | –
15 | NC(=O)c1ccc(NC(=O)c2ccccc2SC(=O)CCCC[n+]2ccccc2)cc1 | 7.41 | 15.8 | –
16 | COc1ccc(C(=CCC[C@H]2CC[C@@]3(C)[C@@H](CC[C@@H]4[C@@H]3CC[C@]3(C)[C@@H](C(C)CCCC(C)C)CC[C@@H]43)C2)c2ccc(OC)c(C(=O)O)c2)cc1C(=O)O (stereo partly drawn) | > 200 | > 200 | –
17 | CC1CCC(=O)C(C(O)CC2CC(=O)N(c3ccccc3)C(=O)C2)C1 (stereo not drawn) | > 200 | > 200 | –
18 | CCCNC(=O)N(C(C)C)S(=O)(=O)c1ccc(Cl)cc1 | – | – | inactive
19 | N#CC1CCCCCCCCCCC(=O)N(CCCl)C1=O (stereo not drawn) | > 60.3 | > 60.3 | –
20 | N=C(N)CCNC(=O)C1CCC(N)=N1 (stereo not drawn) | > 851 | 17 | –

Row | Compound | EC50 [µM] | IC50 [µM] | outcome
21 | OC1CC(c2ccccc2)Oc2ccccc21 (stereo not drawn) | – | – | inactive
22 | O=c1[nH]c2ccccc2c(O)c1/C=N/C(=S)NCCc1ccccc1 | > 200 | > 200 | –
23 | CCCCNC(=S)/C(C#N)=C1\Nc2ccccc2O1 | > 200 | 32.4 | –
24 | COc1ccc(C2CC(=O)c3c(O)cc(OC4OC(CO)C(O)C(O)C4OC4OC(C)C(O)C(O)C4O)cc3O2)cc1O (stereo not drawn) | > 200 | > 200 | –
25 | CCN(CCCl)CCCCNc1c2ccccc2nc2ccc(OC)cc12 | – | – | inactive
26 | C=CCC(CC=O)(C(=O)OCC)C(=O)OCC | > 200 | 110 | –
27 | CN1C/C(=C/c2ccc(N(C)C)cc2)C(=O)/C(=C/c2ccc(N(C)C)cc2)C1 | > 200 | > 200 | –
28 | CCCCC1OCCOC1C1COCCO1 (stereo not drawn) | > 195 | > 195 | –
29 | Cc1c(COC(=O)NC(C)C)c(COC(=O)NC(C)C)c2n1CS(=O)(=O)C2 | > 200 | > 200 | –
30 | Nc1sc(=S)nc2[nH]ncc12 | > 200 | > 200 | –
31 | CC(=O)OCc1nnn2c1CCC2 | – | – | inactive
32 | Nc1c(Br)cc2snc3c2c1C(=O)c1ccccc1-3 | > 15.8 | 8.51 | –
33 | CC1(C)Oc2ccccc2OC1O (stereo not drawn) | > 200 | > 200 | –
34 | CC1(C)OCC(C(O)C2OC(C)(C)OC2/C=N\O)O1 (stereo not drawn) | > 912 | > 912 | –
35 | C1CCC2(CC1)O[C@@H]1[C@@H](O2)[C@@H](O[C@H]2O[C@@H]3COC4(CCCCC4)O[C@H]3[C@@H]3OC4(CCCCC4)O[C@@H]23)O[C@@H]2COC3(CCCCC3)O[C@@H]12 | > 100 | > 100 | –
36 | CCOC(=O)C1(c2ccc(O)c(O)c2)CCN(C)CC1 | > 794 | 380 | –
37 | O=C(CC(=O)C1CCOC1=O)C(=O)Nc1cccc(Cl)c1 (stereo not drawn) | – | – | inactive
38 | CC(C)C(O)(C(=O)OCN1C(=O)C2C3C=CC(C2C1=O)C1C2C(=O)N(COC(=O)C(O)(C(C)C)C(C)O)C(=O)C2C31)C(C)O (stereo not drawn) | > 200 | > 200 | –
39 | O=C(O[C@H]1[C@@H]2C=CO[C@@H](OC3OC(CO)C(O)C(O)C3O)[C@@H]2[C@@]2(CO)O[C@@H]12)c1ccc(O)c(O)c1 (stereo partly drawn) | – | – | inactive
40 | NC(CC(O)(c1ccccc1)c1ccccc1)c1ccccc1S (stereo not drawn) | > 200 | – | –

Row | Compound | EC50 [µM] | IC50 [µM] | outcome
41 | O=c1oc2cc(O)ccc2c2oc3cc(O)ccc3c12 | > 0.513 | 0.0162 | –
42 | Cc1c(O)c2ccc(Cl)cc2n(C)c1=O | > 200 | > 200 | –
43 | O=C1NCC2(CCN(CCCC3(c4ccc(F)cc4)OCCO3)CC2)N1c1ccccc1 | > 200 | > 200 | –
44 | C[n+]1ccccc1/C=N/O | > 200 | > 200 | –
45 | Oc1ccc(-c2csc(NNC3=NC/C(=C/c4ccc5c(c4)OCO5)S3)n2)cc1O | > 200 | 64.6 | –
46 | CCc1cccc(CC)c1NC(=O)C(C#N)C1=C(Cl)C(=O)c2ccccc2C1=O (stereo not drawn) | > 17.8 | 11.5 | –
47 | O=c1cc(-c2ccccc2)nc(-n2[nH]c3c(c2=O)CCCC3)[nH]1 | > 50.1 | 1.29 | –
48 | C=CCC1(c2ccccc2)Oc2cccnc2-n2cccc2C1=O (stereo not drawn) | > 200 | 8.91 | –
49 | CCOc1ccc(OCC)c([P+](c2ccccc2)(c2ccccc2)c2ccccc2)c1 | – | – | inactive
50 | Cc1cnc2sn(-c3ccc(Br)cc3)c(=O)c2c1 | > 200 | 11.5 | –
51 | O=C(c1ccc2c(c1)OCO2)N1OC2C=CC1CC2 (stereo not drawn) | > 955 | 513 | –
52 | COc1ccc(OCC(=O)O)c2c1CCCC2=O | – | – | inactive
53 | CCOC(=O)/C(C#N)=C1/C(O)=C(C(=O)OC)C(C(=O)OC)=C1C(=O)OC | – | – | inactive
54 | O=c1[nH]c2cc([N+](=O)[O-])ccc2nc1/C(=N/Nc1ccccc1)C(O)c1ccccc1Cl (stereo not drawn) | > 363 | 355 | –
55 | COc1ccc(C2SCC(=O)N2N=C2NC(=O)CC(=O)N2)cc1 (stereo not drawn) | > 200 | > 200 | –
56 | Cc1cccc2c1CCC21OC(=O)c2c1cc(F)c1ccccc21 (stereo not drawn) | > 39.8 | 14.8 | –
57 | O=C1C2CN(Cc3ccccc3)CC1CN(CC1CC1)C2 | > 240 | > 240 | –
58 | Cc1cc(C(C)(C)C)oc(=O)c1NC(=O)c1ccccc1 | > 200 | 155 | –
59 | Cc1ccc(NC(=O)c2c(N)c(C#N)c3n2CCC3)cc1 | > 200 | > 200 | –
60 | O=C1CCC2(c3ccc(Cl)cc3)Nc3ccncc3N12 (stereo not drawn) | > 631 | 91.2 | –
